{"source": "patent US20020064847A1", "about": "“NOVEL SECONDARY ALCOHOL DEHYDROGENASE, PROCESS FOR PREPARING SAID ENZYME, AND PROCESS FOR PREPARING ALCOHOLS AND KETONES USING SAID ENZYME” (priority 1996, published 2002)", "key": {"[1]": {"tested_on": "secondary alcohol dehydrogenase", "experiment": "Substrate specificity, oxidation reaction", "type": "biochemical, Geotrichum candidum IFO 4601", "conditions": "coenzyme NAD+, (S)-1,3-butanediol-oxidizing activity = 100", "description": "(§1) In the present invention, secondary alcohol dehydrogenase activity was determined by allowing the enzyme to react in the reaction mixture containing potassium phosphate buffer (pH 8.0, 50 μmol), 2.5 μmol NAD^+, and 50μmol (S)-1,3-butanediol at 30° C. and measuring an increase of absorbance at 340 nm resulting from generation of NADH. One unit was defined as the amount of enzyme catalyzing generation of 1μmol of NADH per minute.\n(§2) The secondary alcohol dehydrogenase was reacted with various alcohols and aldehydes. Its oxidation and reduction activities are shown in Table 1 as relative activities to (S)-1,3-butanediol-oxidizing activity and 4-hydroxy-2-butanone-reducing activity that are taken as 100."}, "[2]": {"tested_on": "secondary alcohol dehydrogenase", "experiment": "Behavior of the secondary alcohol dehydrogenase to inhibitors (residual activity)", "type": "biochemical, Geotrichum candidum IFO 4601", "conditions": "for Residual activity: 30° C. for 10 minutes", "description": "as §1\nThe secondary alcohol dehydrogenase was treated with various reagents at 30° C. for 10 minutes."}, "[3]": {"tested_on": "secondary alcohol dehydrogenase", "experiment": "Enzyme kinetic analysis", "type": "biochemical, Geotrichum candidum IFO 4601", "description": "as §1\nThe reaction rate constants of the purified secondary alcohol dehydrogenase to the following substrates were measured."}, "[4]": {"tested_on": "secondary alcohol dehydrogenase", "experiment": "Substrate specificity, oxidation reaction", "type": "biochemical, Geotrichum candidum IFO 4601", "conditions": "substrate 50 mM, coenzyme NADP+, (S)-1,3-butanediol-oxidizing activity = 100"}, "[5]": {"tested_on": "secondary alcohol dehydrogenase", "experiment": "Substrate specificity, reduction reaction", "type": "biochemical, Geotrichum candidum IFO 4601", "conditions": "4-hydroxy-2-butanone-reducing activity = 100", "description": "The secondary alcohol dehydrogenase was examined for its activity of oxidation of (S)-1,3-butanediol and that of reduction of 4-hydroxy-2-butanone [which was measured under the same conditions as those used for measuring activity of oxidation of (S)-1,3-butanediol except for using NADH (0.4 μmol) instead of NAD^+] at different pHs using potassium-phosphate buffer (KPB), Tris-HCl buffer and Britten-Robinson buffer by measuring the decrease of absorbance at 340 nm accompanied with reduction of the amount of NADH. The activity is shown in FIGS. 3 and 4 as relative activity with taking the maximal activity as 100. The optimum pH in the reaction was 8.0-9.0 in the case of the oxidation of (S)-1,3-butanediol (FIG. 3) and 7.0 in the case of the reduction of 4-hydroxy-2-butanone (FIG. 4).\nas §2"}, "[6]": {"target": "primary alcohol dehydrogenase (SADH 1) (Saccharomyces cerevisiae, UniProt P00330)", "sequence (P00330 whole entry)": "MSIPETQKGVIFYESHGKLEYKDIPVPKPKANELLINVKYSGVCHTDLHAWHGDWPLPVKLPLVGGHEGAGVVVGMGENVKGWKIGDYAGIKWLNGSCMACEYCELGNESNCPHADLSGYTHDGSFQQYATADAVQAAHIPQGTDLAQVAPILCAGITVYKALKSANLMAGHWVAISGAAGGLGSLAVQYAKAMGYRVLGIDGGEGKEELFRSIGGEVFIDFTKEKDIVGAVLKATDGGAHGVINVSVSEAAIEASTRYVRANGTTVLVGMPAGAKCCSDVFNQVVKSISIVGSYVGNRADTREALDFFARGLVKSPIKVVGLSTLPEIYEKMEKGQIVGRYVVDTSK", "conditions": "SADH 1 from Saccharomyces cerevisiae; cited from earlier work"}, "[7]": {"conditions": "substrate 100 mM, coenzyme NADH"}}, "note": "Entries after “also recorded” stand apart in the source; their conditions may differ. Read-outs that look alike come from different tables or passages of the source.", "data": [{"molecule": "C[C@H](O)CO", "note": "[(S)-1,2-propanediol]", "values": [{"measurement": "Relative activity", "setting": "[1]; substrate 50 mM", "result": 23.8, "unit": "%"}]}, {"molecule": "[Cl][Hg][Cl]", "note": "[mercuric chloride]", "values": [{"measurement": "Inhibition of the enzyme (in words)", "setting": "[2]", "result": "markedly inhibited"}, {"measurement": "Residual activity", "setting": "[2]; inhibitor 1.0 mM", "result": 0.0, "unit": "%"}, {"measurement": "Inhibition of the enzyme (in words)", "setting": "[2]; listed as mercury chloride", "result": "inhibited"}]}, {"molecule": "1-butanol", "values": [{"measurement": "Relative activity", "setting": "[1]; substrate 100 mM", "result": 12.9, "unit": "%"}]}, {"molecule": "CO", "note": "[methanol]", "values": [{"measurement": "Relative activity", "setting": "[1]; substrate 100 mM", "result": 60.8, "unit": "%"}]}, {"molecule": "[Cl-].[Cl-].[Zn+2]", "note": "[zinc chloride]", "values": [{"measurement": "Inhibition of the enzyme (in words)", "setting": "[2]", "result": "markedly inhibited"}, {"measurement": "Residual activity", "setting": "[2]; inhibitor 10 mM", "result": 0.9, "unit": "%"}]}, {"molecule": "C[C@@H](O)CO", "note": "[(R)-1,2-propanediol]", "values": [{"measurement": "Relative activity", "setting": "[1]; substrate 50 mM", "result": 10.4, "unit": "%"}]}, {"molecule": "C[C@H](O)c1ccccc1", "note": "[(S)-1-phenylethanol]", "values": [{"measurement": "Relative activity", "setting": "[1]; substrate 50 mM", "result": 267, "unit": "%"}]}, {"molecule": "C[C@H](O)CCO", "note": "[(S)-1,3-butanediol]", "values": [{"measurement": "Relative activity", "setting": "[1]; substrate 50 mM", "result": 100, "unit": "%"}, {"measurement": "Km", "setting": "[3]; purified enzyme", "result": 41.4, "unit": "mM"}, {"measurement": "Vmax", "setting": "[3]; purified enzyme", "result": "36.7 U/mg of protein"}, {"measurement": "Relative activity", "setting": "[4]", "result": 2.4, "unit": "%"}]}, {"molecule": "OCCS", "note": "[2-mercaptoethanol]", "values": [{"measurement": "Inhibition of the enzyme (in words)", "setting": "[2]", "result": "markedly inhibited"}, {"measurement": "Residual activity", "setting": "[2]; inhibitor 0.01 mM", "result": 6.8, "unit": "%"}, {"measurement": "Inhibition of the enzyme (in words)", "setting": "[2]; listed as 2-mercaptethanol", "result": "inhibited"}]}, {"molecule": "CCCCCC[C@@H](C)O", "note": "[(R)-2-octanol]", "values": [{"measurement": "Relative activity", "setting": "[1]; substrate 5 mM", "result": 13.3, "unit": "%"}]}, {"molecule": "COC(=O)C[C@H](C)O", "note": "[methyl (S)-3-hydroxybutyrate]", "values": [{"measurement": "Relative activity", "setting": "[1]; substrate 50 mM", "result": 138, "unit": "%"}]}, {"molecule": "O=C(O)c1cc[c]([Hg][Cl])cc1", "note": "[p-chloromercuribenzoic acid]", "values": [{"measurement": "Inhibition of the enzyme (in words)", "setting": "[2]", "result": "perfectly inhibited"}, {"measurement": "Residual activity", "setting": "[2]; inhibitor 0.05 mM", "result": 0.0, "unit": "%"}, {"measurement": "Inhibition of the enzyme (in words)", "setting": "[2]; listed as parachloromercuribenzoic acid", "result": "markedly inhibited"}]}, {"molecule": "(R)-2-butanol", "values": [{"measurement": "Relative activity", "setting": "[1]; substrate 50 mM", "result": 60.0, "unit": "%"}]}, {"molecule": "O=S(=O)([O-])[O-].[Cu+2]", "note": "[copper sulfate]", "values": [{"measurement": "Residual activity", "setting": "[2]; inhibitor 1.0 mM", "result": 71.5, "unit": "%"}]}, {"molecule": "CC(=O)CCO", "note": "[4-hydroxy-2-butanone]", "values": [{"measurement": "Relative activity", "setting": "[5]; substrate 20 mM, coenzyme NADH", "result": 100, "unit": "%"}, {"measurement": "Relative activity", "setting": "[5]; substrate 20 mM, coenzyme NADPH", "result": 0, "unit": "%"}]}, {"molecule": "1-propanol", "values": [{"measurement": "Relative activity", "setting": "[1]; substrate 100 mM", "result": 15.5, "unit": "%"}]}, {"molecule": "O=C(O)CN(CCN(CC(=O)O)CC(=O)O)CC(=O)O", "note": "[ethylenediaminetetraacetic acid]", "values": [{"measurement": "Inhibition of the enzyme (in words)", "setting": "[2]", "result": "inhibited"}, {"measurement": "Residual activity", "setting": "[2]; inhibitor 1.0 mM", "result": 63.5, "unit": "%"}, {"measurement": "Residual activity", "setting": "[2]; inhibitor 10 mM", "result": 9.8, "unit": "%"}]}, {"molecule": "O[C@H](CS)[C@H](O)CS", "note": "(racemic) [dithiothreitol]", "values": [{"measurement": "Residual activity", "setting": "[2]; inhibitor 1.0 mM", "result": 42.9, "unit": "%"}]}, {"molecule": "CC(=O)c1ccccc1", "note": "[acetophenone]", "values": [{"measurement": "Relative activity", "setting": "[5]; substrate 20 mM, coenzyme NADH", "result": 122, "unit": "%"}]}, {"molecule": "COC(=O)C[C@@H](C)O", "note": "[methyl (R)-3-hydroxybutyrate]", "values": [{"measurement": "Relative activity", "setting": "[1]; substrate 50 mM", "result": 22.1, "unit": "%"}]}, {"molecule": "CC(C)O", "note": "[2-propanol]", "values": [{"measurement": "Relative activity", "setting": "[1]; substrate 100 mM", "result": 96.8, "unit": "%"}]}, {"molecule": "CCO", "note": "[ethanol]", "values": [{"measurement": "Relative activity", "setting": "[1]; substrate 100 mM", "result": 10.7, "unit": "%"}]}, {"molecule": "(S)-2-butanol", "values": [{"measurement": "Relative activity", "setting": "[1]; substrate 50 mM", "result": 112, "unit": "%"}]}, {"molecule": "C=CCO", "note": "[allyl alcohol]", "values": [{"measurement": "Relative activity", "setting": "[1]; substrate 100 mM", "result": 18.7, "unit": "%"}]}, {"molecule": "NC(=O)CI", "note": "[iodoacetamide]", "values": [{"measurement": "Inhibition of the enzyme (in words)", "setting": "[2]", "result": "perfectly inhibited; also recorded: markedly inhibited"}, {"measurement": "Residual activity", "setting": "[2]; inhibitor 1.0 mM", "result": 2.4, "unit": "%"}]}, {"molecule": "C[C@@H](O)c1ccccc1", "note": "[(R)-1-phenylethanol]", "values": [{"measurement": "Relative activity", "setting": "[1]; substrate 50 mM", "result": 19.2, "unit": "%"}]}, {"molecule": "CC(C)=O", "note": "[acetone]", "values": [{"measurement": "Relative activity", "setting": "[5]; [7]", "result": 164, "unit": "%"}]}, {"molecule": "CCCCCC[C@H](C)O", "note": "[(S)-2-octanol]", "values": [{"measurement": "Relative activity", "setting": "[1]; substrate 5 mM", "result": 187, "unit": "%"}]}, {"molecule": "OC1CCCCC1", "note": "[cyclohexanol]", "values": [{"measurement": "Relative activity", "setting": "[1]; substrate 20 mM", "result": 90.4, "unit": "%"}]}, {"molecule": "[Cl][Co][Cl]", "note": "[cobalt chloride]", "values": [{"measurement": "Residual activity", "setting": "[2]; inhibitor 1.0 mM", "result": 81.0, "unit": "%"}]}, {"molecule": "OCC(O)CO", "note": "[glycerol]", "values": [{"measurement": "Relative activity", "setting": "[1]; substrate 50 mM", "result": 0, "unit": "%"}]}, {"molecule": "C[C@@H](O)CCO", "note": "[(R)-1,3-butanediol]", "values": [{"measurement": "E value", "setting": "[3]; (S)- versus (R)-1,3-butanediol", "result": 33.0}, {"measurement": "Vmax", "setting": "[3]; purified enzyme", "result": "4.43 U/mg of protein"}, {"measurement": "Relative activity", "setting": "[4]", "result": 8.8, "unit": "%"}]}, {"molecule": "CCOC(=O)CC(C)=O", "note": "[ethyl acetoacetate]", "values": [{"measurement": "Relative activity", "setting": "[5]; [7]", "result": 96.8, "unit": "%"}]}, {"molecule": "CCC(C)=O", "note": "[2-butanone]", "values": [{"measurement": "Relative activity", "setting": "[5]; [7]", "result": 20.2, "unit": "%"}]}, {"molecule": "(RS)-2-butanol", "values": [{"measurement": "Relative activity", "setting": "[1]; substrate 100 mM", "result": 85.9, "unit": "%"}, {"measurement": "Activity relative to ethanol", "setting": "[6]", "result": "approximately 1%"}]}]}
